Results reported in US8501786B2, “Hydroxymethyl pyrrolidines as beta 3 adrenergic receptor agonists” (Merck Sharp & Dohme Corp., priority 2009, dated 2013).
pEC50: −log10 of the molar value.

Biological target: T1, human β3 adrenergic receptor (Homo sapiens, UniProt P13945)
T1 construct: stably transfected with the cloned β-adrenergic receptor (β1, β2 or β3); expressed in transfected cells; host or cells: Chinese hamster ovary (CHO) cells, stably transfected
Assay: Functional assay: cAMP production (LANCE TR-FRET) in CHO cells stably transfected with cloned β3 adrenergic receptor
Type: cell-based
Settings: Table 3; cAMP production, CHO cells expressing human β3 AR; read-out: Human β3 functional
Description: Functional Assay: cAMP production in response to ligand is measured according to Barton, et al. (1991, Agonist-induced desensitization of D2 dopamine receptors in human Y-79 retinoblastoma cells. Mol. Pharmacal. v3229:650-658) modified as follows, cAMP production is measured using a homogenous time-resolved fluorescence resonance energy transfer immunoassay (LANCE™, Perkin Elmer) according to the manufacture's instructions. Chinese hamster ovary (CHO) cells, stably transfected with the cloned β-adrenergic receptor (β1, β2 or β3) are harvested after 3 days of subculturing. Harvesting of cells is done with Enzyme-free Dissociation Media (Specialty Media). Cells are then counted and resuspended in assay buffer (Hank's Balanced salt solution supplemented with 5 mM HEPES, […]) containing a phosphodiesterase inhibitor (IBMX, 0.6 mM). The reaction is initiated by mixing 6,000 cells in 6 μL with 6 μL Alexa Fluor labeled cAMP antibody (LANCE™ kit) which is then added to an assay well containing 12 μL of compound (diluted in assay buffer to 2× final concentration). The reaction proceeds for 30 min at room temperature and is terminated by the addition of 24 ul detection buffer (LANCE™ kit). The assay plate is then incubated for 1 h at room temperature and time-resolved fluorescence measured on a Perkin Elmer Envision reader or equivalent. The unknown cAMP level is determined by comparing fluorescence levels to a cAMP standard curve.
The non-selective, full agonist β-adrenergic ligand isoproterenol is used at all three receptors to determine maximal stimulation. The human β3 adrenergic receptor (AR) selective ligand (S)-N-[4-[2-[[2-hydroxy-3-(4-hydroxyphenoxy)propyl]amino]ethyl]-phenyl]-4-iodobenzenesulfonamide is used as a control in all assays. Isoproterenol is titrated at a final concentration in the assay of 10^-10 M to 10-5 and the selective ligand (S)-N-[4-[2-[[2-hydroxy-3-(4-hydroxyphenoxy)propyl]amino]ethyl]phenyl]-4-iodobenzenesulfonamide is titrated at the β3 receptor at concentration of 10^-10 M to 10^-5 M. Unknown ligands are titrated at all 3 β-adrenergic receptor subtypes at a final concentration in the assay of 10^-10 M to 10^-5 M to determine the EC50. The EC50 is defined as the concentration of compound that gives 50% activation of its own maximum. Data are analyzed using Microsoft Excel and Graphpad Prism or an internally developed data analysis software package.

T1 sequence (P13945 whole entry): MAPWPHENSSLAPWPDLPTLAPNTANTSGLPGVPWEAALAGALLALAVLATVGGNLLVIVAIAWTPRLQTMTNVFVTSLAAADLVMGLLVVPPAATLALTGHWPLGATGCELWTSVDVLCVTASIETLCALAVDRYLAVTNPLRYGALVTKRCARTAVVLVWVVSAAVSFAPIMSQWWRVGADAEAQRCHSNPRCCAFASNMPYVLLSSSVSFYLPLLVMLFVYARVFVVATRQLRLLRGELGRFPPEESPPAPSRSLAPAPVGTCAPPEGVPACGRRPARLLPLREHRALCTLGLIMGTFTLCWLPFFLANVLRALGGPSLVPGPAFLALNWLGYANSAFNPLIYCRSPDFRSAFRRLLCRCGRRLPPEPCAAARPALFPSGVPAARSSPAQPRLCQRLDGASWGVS

pEC50	Compound
7.00 to 7.96	CC(C(=O)Nc1ccc(CC2CC[C@H]([C@H](O)c3cccnc3)N2)cc1)c1nnn(C)n1 (single isomer, unassigned) [Example 180]
7.00 to 7.96	CC(C(=O)Nc1ccc(CC2CC[C@H]([C@H](O)c3cccnc3)N2)cc1)c1nnn(C)n1 (single isomer, unassigned) [Example 181]
7.00 to 7.96	CC(C(=O)Nc1ccc(CC2CC[C@H]([C@H](O)c3cccnc3)N2)cc1)n1cnnn1 (single isomer, unassigned) [Example 182]
8.00 to 9.00	CC(C(=O)Nc1ccc(CC2CC[C@H]([C@H](O)c3cccnc3)N2)cc1)n1cnnn1 (single isomer, unassigned) [Example 183]
8.00 to 9.00	CCC(C(=O)Nc1ccc(CC2CC[C@H]([C@H](O)c3cccnc3)N2)cc1)n1cccn1 (single isomer, unassigned) [Example 184]
8.00 to 9.00	CCC(C(=O)Nc1ccc(CC2CC[C@H]([C@H](O)c3cccnc3)N2)cc1)n1cccn1 (single isomer, unassigned) [Example 185]
> 9.00	O=C(Nc1ccc(CC2CC[C@H]([C@H](O)c3cccnc3)N2)cc1)C1CCc2sc(Cl)nc21 (single isomer, unassigned) [Example 186]
7.00 to 7.96	O=C(Nc1ccc(CC2CC[C@H]([C@H](O)c3cccnc3)N2)cc1)C1CCc2sc(Cl)nc21 (single isomer, unassigned) [Example 187]
8.00 to 9.00	O=C(Nc1ccc(CC2CC[C@H]([C@H](O)c3cccnc3)N2)cc1)C1CCc2sc(CO)nc21 (single isomer, unassigned) [Example 188]
7.00 to 7.96	O=C(Nc1ccc(CC2CC[C@H]([C@H](O)c3cccnc3)N2)cc1)C1CCc2sc(CO)nc21 (single isomer, unassigned) [Example 189]
> 9.00	O=C(Nc1ccc(CC2CC[C@H]([C@H](O)c3cccnc3)N2)cc1)C1CCc2scnc21 (single isomer, unassigned) [Example 190]
7.00 to 7.96	O=C(Nc1ccc(CC2CC[C@H]([C@H](O)c3cccnc3)N2)cc1)C1CCc2scnc21 (single isomer, unassigned) [Example 191]
7.00 to 7.96	O=C(Nc1ccc(CC2CC[C@H]([C@H](O)c3cccnc3)N2)cc1)C1CCc2nc3ccccc3c(=O)n21 (single isomer, unassigned) [Example 192]
8.00 to 9.00	O=C(Nc1ccc(CC2CC[C@H]([C@H](O)c3cccnc3)N2)cc1)C1CCc2nc3ccccc3c(=O)n21 (single isomer, unassigned) [Example 193]
7.00 to 7.96	O=C(Nc1ccc(CC2CC[C@H]([C@H](O)c3cccnc3)N2)cc1)[C@@H]1CCc2ncnn21 (single isomer, unassigned) [Example 194]
> 9.00	CC(C(=O)Nc1ccc(CC2CC[C@H]([C@H](O)c3cccnc3)N2)cc1)c1cscn1 (single isomer, unassigned) [Example 195]
7.00 to 7.96	CC(C(=O)Nc1ccc(CC2CC[C@H]([C@H](O)c3cccnc3)N2)cc1)c1cscn1 (single isomer, unassigned) [Example 196]
6.00 to 7.00	O=C1CC[C@@H](C(=O)Nc2ccc(CC3CC[C@H]([C@H](O)c4cccnc4)N3)cc2)N1 (single isomer, unassigned) [Example 197]
7.00 to 7.96	CC(C(=O)Nc1ccc(CC2CC[C@H]([C@H](O)c3cccnc3)N2)cc1)n1cc(C(=O)O)nn1 (single isomer, unassigned) [Example 198]
7.00 to 7.96	CC(C(=O)Nc1ccc(CC2CC[C@H]([C@H](O)c3cccnc3)N2)cc1)n1cc(C(=O)O)nn1 (single isomer, unassigned) [Example 199]
7.00 to 7.96	CC(C(=O)Nc1ccc(CC2CC[C@H]([C@H](O)c3cccnc3)N2)cc1)n1cc(C(N)=O)nn1 (single isomer, unassigned) [Example 200]

pEC50	Compound
8.00 to 9.00	CC(C(=O)Nc1ccc(CC2CC[C@H]([C@H](O)c3cccnc3)N2)cc1)n1cc(C(N)=O)nn1 (single isomer, unassigned) [Example 201]
8.00 to 9.00	CC(C(=O)Nc1ccc(CC2CC[C@H]([C@H](O)c3cccnc3)N2)cc1)n1ccc(C(N)=O)n1 (single isomer, unassigned) [Example 202]
6.00 to 7.00	CC(C(=O)Nc1ccc(CC2CC[C@H]([C@H](O)c3cccnc3)N2)cc1)n1ccc(C(N)=O)n1 (single isomer, unassigned) [Example 203]
8.00 to 9.00	CCC(C(=O)Nc1ccc(CC2CC[C@H]([C@H](O)c3cccnc3)N2)cc1)c1cscn1 (single isomer, unassigned) [Example 204]
7.00 to 7.96	CCC(C(=O)Nc1ccc(CC2CC[C@H]([C@H](O)c3cccnc3)N2)cc1)c1cscn1 (single isomer, unassigned) [Example 205]
8.00 to 9.00	CC(C(=O)Nc1ccc(CC2CC[C@H]([C@H](O)c3cccnc3)N2)cc1)n1nncc1C(=O)O (single isomer, unassigned) [Example 206]
7.00 to 7.96	CC(C(=O)Nc1ccc(CC2CC[C@H]([C@H](O)c3cccnc3)N2)cc1)n1nncc1C(=O)O (single isomer, unassigned) [Example 207]
8.00 to 9.00	COC(=O)c1cnnn1C(C)C(=O)Nc1ccc(CC2CC[C@H]([C@H](O)c3cccnc3)N2)cc1 (single isomer, unassigned) [Example 208]
6.00 to 7.00	COC(=O)c1cnnn1C(C)C(=O)Nc1ccc(CC2CC[C@H]([C@H](O)c3cccnc3)N2)cc1 (single isomer, unassigned) [Example 209]
7.00 to 7.96	Cc1cn(C(C)C(=O)Nc2ccc(CC3CC[C@H]([C@H](O)c4cccnc4)N3)cc2)nn1 (single isomer, unassigned) [Example 210]
7.00 to 7.96	Cc1cn(C(C)C(=O)Nc2ccc(CC3CC[C@H]([C@H](O)c4cccnc4)N3)cc2)nn1 (single isomer, unassigned) [Example 211]
6.00 to 7.00	Cc1cnnn1C(C)C(=O)Nc1ccc(CC2CC[C@H]([C@H](O)c3cccnc3)N2)cc1 (single isomer, unassigned) [Example 212]
8.00 to 9.00	Cc1cnnn1C(C)C(=O)Nc1ccc(CC2CC[C@H]([C@H](O)c3cccnc3)N2)cc1 (single isomer, unassigned) [Example 213]
7.00 to 7.96	CC(C(=O)Nc1ccc(CC2CC[C@H]([C@H](O)c3cccnc3)N2)cc1)c1ccn(C)n1 (single isomer, unassigned) [Example 214]
6.00 to 7.00	CC(C(=O)Nc1ccc(CC2CC[C@H]([C@H](O)c3cccnc3)N2)cc1)c1ccn(C)n1 (single isomer, unassigned) [Example 215]
7.00 to 7.96	Cc1nnc2c(C(C)C(=O)Nc3ccc(CC4CC[C@H]([C@H](O)c5cccnc5)N4)cc3)cccn12 (single isomer, unassigned) [Example 216]
7.00 to 7.96	Cc1nnc2c(C(C)C(=O)Nc3ccc(CC4CC[C@H]([C@H](O)c5cccnc5)N4)cc3)cccn12 (single isomer, unassigned) [Example 217]
8.00 to 9.00	CC(C(=O)Nc1ccc(CC2CC[C@H]([C@H](O)c3cccnc3)N2)cc1)n1cnc2ccccc2c1=O (single isomer, unassigned) [Example 218]
8.00 to 9.00	CC(C(=O)Nc1ccc(CC2CC[C@H]([C@H](O)c3cccnc3)N2)cc1)n1cc(C(N)=O)cn1 (single isomer, unassigned) [Example 219]
8.00 to 9.00	COCCC(C(=O)Nc1ccc(CC2CC[C@H]([C@H](O)c3cccnc3)N2)cc1)n1cccn1 (single isomer, unassigned) [Example 220]
